Values joined by “and” are separate entries in the source; they are usually repeats but may differ in a detail not shown here. Equal values may be shown once.
Experiments:
[1] = tested on: multiple myeloma patients; assay: Bortezomib data analysis: combined Ig expression score (Affymetrix microarray, CD138+ tumor cells, GSE9782) versus response and time-to-progression on single-agent bortezomib or dexamethasone; format: in vivo, human; settings: bortezomib-treated patients
Excerpt: Publicly available RNA microarray data in tab-delimited text format were downloaded from the Gene Expression Omnibus (GEO ID: GSE9782).
A list of 55 probes from this Affymetrix microarray platform that map to genes encoding immunoglobulin (Ig)-related proteins was obtained from Rody et al. Addition File 5. This example tested for an association between normalized intensity of each of these 55 probes and bortezomib response, which was labeled as “PGx_Responder=R” in the dataset. […] The finding of 13 significant associations is far more than expected by chance (Binomial P-value=2×10^−6). […] It is not surprising that many probes are not associated, given that some map to rarer, patient-specific portions of the Ig loci and that others map to regions that are unusually highly-expressed, and therefore not well-measured with microarray technology (i.e., their fluorescence is likely to be saturated).
Patients were classified as achieving complete response (CR), partial response (PR), minimal response (MR), no change (NC), or progressive disease (PD), using European Group for Bone Marrow Transplantation criteria. In brief, PD requires 25% increase in paraprotein, whereas MR, PR, and CR require at least 25%, 50%, and 100% decreases, respectively.
Various mean IG expression cutoffs were considered to maximize the clinical utility of a potential diagnostic test. Ultimately, a cutoff of 0.29 (defining “IG-High”>=0.29 and “IG-Low”<0.29) was chosen, predicting response in the training data with 71% sensitivity and 62% specificity. This same cutoff was then applied to time-to-progression (TTP) data for these patients, finding that IG-High patients in this cohort have a 1.4-fold longer median TTP than IG-Low patients (8.4 months vs. 6.0 months; log-rank P-value=0.025).

[2] = tested on: multiple myeloma patients; assay: Carfilzomib data analysis: IGH/IGK/IGL and FCGR2B expression (RNA-Seq, FPKQ, CD138+ tumor cells) versus response, cutoffs with % sensitivity/% specificity (ROC) and time-to-progression on single-agent carfilzomib; format: in vivo, human
Experimental: (§1) Bone marrow samples were aspirated from patients enrolled on Onyx-sponsored Phase 2 trials (NCT00511238, NCT00530816, and NCT00721734) prior to treatment with single-agent carfilzomib. Myeloma tumor cells were isolated by EasySep® immunomagnetic bead-based CD138+ selection (StemCell Technologies), re-suspended in TRIzol (Life Technologies) and frozen at […]. RNA was extracted from these samples with the PureLink RNA kit from Life Technologies (Cat #12183018A), following the recommended protocol for cells in TRIzol suspension, including the optional on-column DNase treatment. Elution volumes ranged from 75 μl-30 μl depending on the total number of cells going into isolation. ERCC control sequences from Life Technologies (ERCC ExFold RNA Spike-In Mix; Cat #4456739) were spiked in to all total RNA samples of sufficient quantity (Nanodrop yield>=150 ng) and quality (Bioanalyzer RIN>=7.0). For 500 ng input libraries, 1 μl of a 1:100 dilution of Mix 1 was added to each total RNA sample and for 150 ng input libraries, 3 μl of a 1:1000 dilution of Mix 1 was added to each total RNA sample. The resulting material was used to construct RNA-Seq libraries with Illumina's TruSeq RNA sample prep kit v2 (Cat #RS-122-2001), with PolyA selection included as the first step. Libraries were sequenced on Illumina's HiSeq 2000 with a target of 70 million fragments using 100×100 bp paired-end sequencing to generate 140 million reads per sample and the resulting raw data was QC-ed with metrics implemented in OmicSoft Array Studio v6.1.
(§2) Raw sequence reads were aligned and expression of genes & isoforms were quantified with a customized pipeline also built in Array Studio v6.1 [Jun]. This pipeline accepts Illumina adapter-stripped, paired-end reads that are trimmed at the […] if a base reaches PHRED quality score Q2 or lower. All reads are aligned to the transcriptome, which consists of the RefGene annotation of human hg19 supplemented with the more rich Ig loci annotations available from ENSEMBL. Reads aligned with mismatches and unaligned reads are subsequently aligned to the entire human genome, searching for novel exon junctions. Reads that remain unaligned are then aligned to the newly identified exon junctions. Alignments to the different references are compared and the highest scoring alignment is retained, or in the event of a tie, the transcriptome alignment is preferentially kept. Finally, all transcriptome alignment locations are translated to genomic coordinates to estimate the expected number of mappings per gene/isoform using the EM algorithm [Dempster]. The EM algorithm assigns reads with multiple alignment locations to an isoform by calculating the conditional probability of a read aligning to a specific isoform, given all other alignments. Weighting the total number of aligned reads with this probability yields posterior expected read counts for each transcript. The EM counts are normalized by the length of the genes/isoforms and number of reads in a library to yield FPKM values (Fragments Per Kilobase per Million reads). Between-sample normalization is achieved by 75th quantile normalization, where each sample is scaled by the median of 75th quantiles from all samples to yield quantile-normalized FPKM or “FPKQ” values.
The FPKQ values corresponding to each “gene” of the three Ig loci, IGH (immunoglobulin heavy locus), IGK (immunoglobulin kappa locus) and IGL (immunoglobulin lambda locus), were summed to produce locus-level expression estimates.
Patients with a best overall response of minimal response (MR) or better (i.e., MR, partial response [PR], very good partial response [VGPR] and complete response [CR]) were grouped into a responder category (N=27; abbreviated as “R”) and patients with a best overall response of stable disease (SD) or worse (i.e., SD and progressive disease [PD]) were grouped into a non-responder category (N=33; abbreviated as “NR”). […]

[3] = tested on: IG expression; assay: IG expression in tumor sample of one patient at screening and on Cycle 1 Day 2 of single-agent carfilzomib (RNA-Seq); format: in vivo, human
Experimental: as §1, §2
To understand, how IG expression changes during treatment with proteasome inhibitors, the data was examined from one patient for which both a screening tumor sample and a sample collected on Cycle 1 Day 2 (C1D2) of treatment with single-agent carfilzomib were available.

[4] = tested on: Line A (high Ig) hybridoma cells; assay: Hybridoma sensitivity to carfilzomib, CellTiter-Glo Luminescent Cell Viability Assay, Line A; format: cell-based; settings: 72h treatment, viability vs no treatment control, read-out: inhibitory concentration (IC50) on the cells of Line A
Experimental: (§3) The two hybridoma cell lines were tested for sensitivity to carfilzomib. Cells of each of Line A (high Ig) and Line B (low Ig) were treated with various doses (40 nM, 30 nM, 20 nM, 15 nM, l0 nM, 7.5 nM, 5 nM, 3.75 nM and 2.5 nM) of carfilzomib for 72h. The viability of the cells were then measured by CellTiter-Glo® Luminescent Cell Viability Assay (Cat. No. G7570; Promega Corporation) and compared to no treatment control.

[5] = tested on: Line B (low Ig) hybridoma cells; assay: Hybridoma sensitivity to carfilzomib, CellTiter-Glo Luminescent Cell Viability Assay, Line B; format: cell-based; settings: 72h treatment, viability vs no treatment control
Experimental: as §3

[6] = tested on: high and low Ig-expressing hybridoma cell lines; assay: Drug sensitivity assay on two additional pairs of high and low Ig-expressing hybridoma cell lines; format: cell-based
[7] = FCGR2B cutoffs 75 and 5 combined with IGH-High cutoff 140,000
[8] = Screening vs C1D2, one patient, single-agent carfilzomib
[9] = one patient, tumor sample on Cycle 1 Day 2 of single-agent carfilzomib

Q: Which results are given for `CC(C)C[C@H](NC(=O)[C@H](Cc1ccccc1)NC(=O)c1cnccn1)B(O)O` [bortezomib]?
A: fold longer median TTP, IG-High vs IG-Low patients ([1]; cutoff 0.29, log-rank P-value=0.025): 1.4 fold; median TTP (time-to-progression), IG-Low patients ([1]; mean IG expression score <0.29): 6.0 months; median TTP (time-to-progression), IG-High patients ([1]; mean IG expression score >=0.29): 8.4 months

Q: With `CC(C)C[C@H](NC(=O)[C@H](CCc1ccccc1)NC(=O)CN1CCOCC1)C(=O)N[C@@H](Cc1ccccc1)C(=O)N[C@@H](CC(C)C)C(=O)[C@@]1(C)CO1` [carfilzomib] as the compound, how does the “median TTP, IGH+FCGR2B-Negative patients” value [2, 7] read?
A: 1.2 months

Q: What about the “median TTP, IGH+FCGR2B-Positive patients” value [2, 7] of the same compound?
A: 8.9 months

Q: And the “median TTP (time to progression), IGH-Low patients” value ([2]; IGH FPKQ <160,000)?
A: 1.4 months and 1.3 months

Q: And the “median TTP (time to progression), IGH-High patients” value ([2]; IGH FPKQ >=160,000)?
A: 7.6 months and 7.3 months

Q: And the “fold longer median TTP, IGH-High vs IGH-Low patients” value ([2]; log-rank P-value=0.003)?
A: 6 fold and 5.4 fold

Q: What about the “fold longer median TTP, IGH+FCGR2B-Positive vs IGH+FCGR2B-Negative patients” value ([2]; log-rank P-value=3×10−5) of the same compound?
A: 7.3 fold

Q: What about the “Fold-Change of expression, gene ICKV3-20” value [3, 8] of the same compound?
A: 4.11

Q: What about the “Fold-Change of expression, gene IGHA1” value [3, 8] of the same compound?
A: 3.37

Q: What about the “Fold-Change of expression, gene IGHV3-30” value [3, 8] of the same compound?
A: 3.63

Q: And the “Fold-Change of expression, gene IGHV3-33” value [3, 8]?
A: 3.77

Q: And the “Fold-Change of expression, gene IGKC” value [3, 8]?
A: 3.88

Q: What about the “IG expression lower in the sample collected one day after the first dose” value ([3]; one patient, screening vs C1D2) of the same compound?
A: 3- to 4 fold

Q: And the “Expression C1D2, gene ICKV3-20” value [3, 9]?
A: 9.6E+04

Q: What about the “Expression C1D2, gene IGHA1” value [3, 9] of the same compound?
A: 1.3E+05

Q: And the “Expression C1D2, gene IGHV3-30” value [3, 9]?
A: 2.4E+04

Q: What about the “Expression C1D2, gene IGHV3-33” value [3, 9] of the same compound?
A: 2.1E+04

Q: What about the “Expression C1D2, gene IGKC” value [3, 9] of the same compound?
A: 1.4E+05

Q: What about the IC50 [4] of the same compound?
A: 10.4 nM

Q: What about the IC50 [5] of the same compound?
A: 24.3 nM

Q: And the “sensitivity of high Ig-expressing hybridoma lines relative to low Ig-expressing lines” value [6]?
A: greater sensitivity
